# Reference: patent US9717681B2, “Formulations containing substituted imidazole derivatives” (R.P. Scherer Technologies, LLC, priority 2002, dated 2017)
# Experiments:
# [1] = Protocol B: fipamezole administered as buccal spray to healthy volunteers, pharmacokinetics and tolerability; type: in vivo, human; settings: for Cmax: human plasma
# Method: Fipamezole was administered orally in solution in increasing doses (0.5, 1, 3, 9, 18, 30 and 60 mg) to healthy volunteers (Caucasian males, 18-35 years old, 60-90 kg body weight). Blood samples were taken at intervals for pharmacokinetic evaluation up to 24 hours after each dose. Concentrations of fipamezole in plasma were measured with HPLC-MS/MS. Safety and tolerability were evaluated by standard safety laboratory determinations, ECG recordings, blood pressure and heart rate measurements and by adverse event questioning. The pharmacokinetics were evaluated using the Topfit 2.0 pharmacokinetic program. Cmax and tmax were read from the concentration vs. time curves and the apparent elimination phase half lives from the semi-logarithmic terminal part of the curve. AUC values were calculated both for infinity and up to the last measurable data point. […] The protocol used was substantially as for protocol A, except administration was by buccal spray (0.75, 1.5, 3, 7.5, 15, 30, 60 and 90 mg single doses).
# [2] = Protocol A: fipamezole administered orally in solution to healthy volunteers, pharmacokinetics, safety and tolerability; type: in vivo, human; settings: for Cmax / Tmax / AUC(0-t) / half-life: male, human, plasma; for Cmax: po, human plasma
# Method: Fipamezole was administered orally in solution in increasing doses (0.5, 1, 3, 9, 18, 30 and 60 mg) to healthy volunteers (Caucasian males, 18-35 years old, 60-90 kg body weight). Blood samples were taken at intervals for pharmacokinetic evaluation up to 24 hours after each dose. Concentrations of fipamezole in plasma were measured with HPLC-MS/MS. Safety and tolerability were evaluated by standard safety laboratory determinations, ECG recordings, blood pressure and heart rate measurements and by adverse event questioning. The pharmacokinetics were evaluated using the Topfit 2.0 pharmacokinetic program. Cmax and tmax were read from the concentration vs. time curves and the apparent elimination phase half lives from the semi-logarithmic terminal part of the curve. AUC values were calculated both for infinity and up to the last measurable data point.
# [3] = Pharmacokinetics of fast dispersing dosage form in dogs; type: in vivo, beagle dogs
# Method: In this study fipamezole was administered orally as a fast dispersing tablet (formulation as for Example 3 above) (20 mg/kg) via the buccal cavity to pure bred beagle dogs (1 male and 1 female). Throughout the study (8 days, and 4 days pre-study) the subjects were monitored for viability, changes in behaviour, reaction to treatment and ill-health. In addition, body weight and food consumption were recorded. Blood was collected at 10, 20, 30 and 45 minutes and 1, 1.25, 1.5, 2, 2.5, 3, 4 and 8 hours after administration for plasma level analysis (LC/MS/MS method).
# [4] = beagle dogs, fast dispersing tablet (formulation as Example 3), 20 mg/kg via buccal cavity
smiles,measurement,setting,value
"CCC1(c2c[nH]cn2)Cc2ccc(F)cc2C1.Cl (centres unmarked) [fipamezole, 4-(2-ethyl-5-fluoro-indan-2-yl)-1H-imidazole, hydrochloride salt]",Absorption from the buccal mucosa into systemic circulation,[1],rapidly absorbed in a dose-dependent manner
same,Relation between dose and Cmax and AUC0-inf values,[1],linear correlation
same,Tolerability,[1]; all doses 0.75-90 mg single doses,well tolerated
same,Tmax,[1]; dose 0.75 mg,0.72 h
same,Tmax,[1]; dose 1.5 mg,0.72 h
same,Tmax,[1]; dose 7.5 mg,0.72 h
same,Tmax,[1]; dose 15 mg,0.72 h
same,Tmax,[1]; dose 30 mg,0.72 h
same,Cmax,[1]; dose 30 mg,49.23 ng/mL
same,Adverse effects seen after administration,[1]; frequently seen after administration,buccal erythema and whitening
same,Cmax,"[1]; male, dose 0.75 mg, read-out: Cmax",1.53 ng/mL
same,Cmax,"[1]; male, dose 1.5 mg, read-out: Cmax",3.13 ng/mL
same,Cmax,"[1]; male, dose 3 mg, read-out: Cmax",4.76 ng/mL
same,Cmax,"[1]; male, dose 7.5 mg, read-out: Cmax",13 ng/mL
same,Cmax,"[1]; male, dose 15 mg, read-out: Cmax",25.9 ng/mL
same,Cmax,"[1]; male, dose 60 mg, read-out: Cmax",92.9 ng/mL
same,Cmax,"[1]; male, dose 90 mg, read-out: Cmax",172 ng/mL
same,AUC(0-t),"[1]; male, human, plasma, dose 0.75 mg",4.6 ng·h/mL
same,half-life,"[1]; male, human, plasma, dose 0.75 mg, read-out: t1/2 (converted)",1.47 h
same,AUC(0-t),"[1]; male, human, plasma, dose 1.5 mg",9.99 ng·h/mL
same,half-life,"[1]; male, human, plasma, dose 1.5 mg, read-out: t1/2 (converted)",1.65 h
same,AUC(0-t),"[1]; male, human, plasma, dose 3 mg",15.4 ng·h/mL
same,half-life,"[1]; male, human, plasma, dose 3 mg, read-out: t1/2 (converted)",1.6 h
same,Tmax,"[1]; male, human, plasma, dose 3 mg, read-out: tmax",0.78 h
same,AUC(0-t),"[1]; male, human, plasma, dose 7.5 mg",40.8 ng·h/mL
same,half-life,"[1]; male, human, plasma, dose 7.5 mg, read-out: t1/2 (converted)",1.78 h
same,AUC(0-t),"[1]; male, human, plasma, dose 15 mg",84.1 ng·h/mL
same,half-life,"[1]; male, human, plasma, dose 15 mg, read-out: t1/2 (converted)",1.97 h
same,AUC(0-t),"[1]; male, human, plasma, dose 30 mg",157 ng·h/mL
same,half-life,"[1]; male, human, plasma, dose 30 mg, read-out: t1/2 (converted)",2.12 h
same,AUC(0-t),"[1]; male, human, plasma, dose 60 mg",231 ng·h/mL
same,half-life,"[1]; male, human, plasma, dose 60 mg, read-out: t1/2 (converted)",3 h
same,Tmax,"[1]; male, human, plasma, dose 60 mg, read-out: tmax",0.46 h
same,AUC(0-t),"[1]; male, human, plasma, dose 90 mg",467 ng·h/mL
same,half-life,"[1]; male, human, plasma, dose 90 mg, read-out: t1/2 (converted)",3.16 h
same,Tmax,"[1]; male, human, plasma, dose 90 mg, read-out: tmax",0.53 h
same,half-life,"[1]; male, human, plasma, range over doses, longer times at larger doses, read-out: Apparent elimination phase half life",1.2 to 3.5 h
same,Cmax,[2]; 0.5 mg,0.05 ng/mL
same,Cmax,[2]; 1 mg,0.08 ng/mL
same,Cmax,[2]; 3 mg,0.23 ng/mL
same,Cmax,[2]; 9 mg,1.09 ng/mL
same,Cmax,[2]; 18 mg,1.31 ng/mL
same,Cmax,[2]; 60 mg,~2 ng/mL
same,Tmax,"[2]; oral solution, dose 0.5 mg",0.88 h
same,AUC(0-t),"[2]; oral solution, dose 1 mg",0.1 ng·h/mL
same,Tmax,"[2]; oral solution, dose 1 mg",0.83 h
same,AUC(0-t),"[2]; oral solution, dose 3 mg",0.3 ng·h/mL
same,Tmax,"[2]; oral solution, dose 3 mg",0.67 h
same,AUC(0-t),"[2]; oral solution, dose 9 mg",4.2 ng·h/mL
same,Tmax,"[2]; oral solution, dose 9 mg",0.67 h
same,half-life,"[2]; oral solution, dose 9 mg",2.2 h
same,AUC(0-t),"[2]; oral solution, dose 18 mg",6 ng·h/mL
same,Tmax,"[2]; oral solution, dose 18 mg",0.83 h
same,half-life,"[2]; oral solution, dose 18 mg",2.4 h
same,AUC(0-t),"[2]; oral solution, dose 30 mg",6.8 ng·h/mL
same,Tmax,"[2]; oral solution, dose 30 mg",1.25 h
same,half-life,"[2]; oral solution, dose 30 mg",3.1 h
same,AUC(0-t),"[2]; oral solution, dose 60 mg",8.2 ng·h/mL
same,Tmax,"[2]; oral solution, dose 60 mg",1.06 h
same,half-life,"[2]; oral solution, dose 60 mg",1.8 h
same,Level of absorption vs dose,"[2]; oral solution, 0.5-60 mg",not dose-proportional
same,Safety and tolerability,"[2]; oral solution, 0.5-60 mg, healthy volunteers",safe and well tolerated
same,Absorption,[3]; [4],rapidly absorbed
same,Time to peak plasma concentration,[3]; [4],≤ 10 min
same,Effect on body weight,"[3]; beagle dogs, fast dispersing tablet, 20 mg/kg",no adverse effect
same,Food consumption on the day of administration,"[3]; beagle dogs, fast dispersing tablet, 20 mg/kg, probably due to frequent blood collection",low
same,Adverse clinical signs,"[3]; female beagle dog, fast dispersing tablet (formulation as Example 3), 20 mg/kg via buccal cavity",No adverse clinical signs
same,Adverse clinical signs,"[3]; male beagle dog, fast dispersing tablet (formulation as Example 3), 20 mg/kg via buccal cavity",elevated pulse rate
